Assay results as given in EPA's ToxRefDB 2.

Key:
rabbit [1] = settings: Prenatal developmental toxicity study, himalayan, Oral, Gavage/Intubation, dose end: 19 GD
dog [2] = settings: Chronic toxicity, beagle, Oral, Gavage/Intubation, dose end: 1 year, group: systemic
rabbit [3] = settings: Prenatal developmental toxicity study, himalayan, Oral, Gavage/Intubation, dose end: 19 GD; remark: listed apart in the source
rat [4] = settings: Fertility (Segment I); sprague dawley; Oral; Gavage/Intubation; dose end: 7 GD; group: parental; systemic / in life observation / body weight / body weight gain + systemic / in life observation / clinical signs / motor activity + …
dog [5] = settings: Chronic toxicity, beagle, Oral, Gavage/Intubation, dose end: 6 month, group: systemic
rat [6] = settings: Prenatal developmental toxicity study, sprague dawley, Oral, Gavage/Intubation, dose end: 17 GD
rat [7] = settings: Chronic toxicity, sprague dawley, Oral, Gavage/Intubation, dose end: 6 month, group: systemic
dog [8] = settings: Sub-acute repeat dose toxicity, beagle, Oral, Capsule, dose end: 4 week, group: systemic
rat [9] = settings: Prenatal developmental toxicity study, sprague dawley, Oral, Gavage/Intubation, dose end: 17 GD; remark: listed apart in the source
rat [10] = settings: Sub-acute repeat dose toxicity; sprague dawley; Oral; Gavage/Intubation; dose end: 28 day; group: systemic; systemic / in life observation / body weight / body weight gain + systemic / in life observation / clinical signs / alopecia + systemic / in…
rat [11] = settings: Sub-acute repeat dose toxicity; Oral; Gavage/Intubation; dose end: 14 day; group: systemic; systemic / clinical chemistry / protein / protein + systemic / hematology / erythrocyte (rbc) count differential / erythrocyte (rbc) + …
primate [12] = settings: Sub-acute repeat dose toxicity; Oral; Gavage/Intubation; dose end: 7 day; group: systemic; systemic / in life observation / clinical signs / abnormal feces + systemic / hematology / erythrocyte (rbc) count differential / …
rat [13] = settings: Sub-acute repeat dose toxicity, Oral, Gavage/Intubation, dose end: 7 day, group: systemic
primate [14] = settings: Sub-acute repeat dose toxicity; Oral; Gavage/Intubation; dose end: 14 day; group: systemic; systemic / clinical chemistry / [other] / [other] + systemic / clinical chemistry / testosterone / testosterone + systemic / hematology / …
primate [15] = settings: Subchronic oral toxicity in nonrodent, Gavage/Intubation, dose end: 42 day, group: systemic, systemic / clinical chemistry / [other] / [other] + systemic / clinical chemistry / cytochrome p450, nos / cytochrome p450, nos + systemic…
[16] = group: developmental, systemic / in life observation / body weight / fetal weight
[17] = group: maternal, systemic / in life observation / body weight / body weight + systemic / in life observation / body weight / body weight gain + systemic / in…
[18] = systemic / in life observation / body weight / body weight gain + systemic / pathology microscopic / eye / opacity
[19] = systemic / in life observation / clinical signs / convulsions + systemic / in life observation / clinical signs / general pallor + systemic…
[20] = group: maternal, systemic / in life observation / food consumption / food consumption
[21] = group: maternal, systemic / in life observation / food consumption / food consumption + systemic / in life observation / body weight / body weight + systemic…
[22] = systemic / in life observation / body weight / body weight gain + systemic / in life observation / clinical signs / vomitting
[23] = systemic / in life observation / body weight / body weight gain + systemic / in life observation / clinical signs / vomitting + systemic / …
[24] = group: maternal, reproductive / reproductive performance / postimplantation loss / postimplantation loss + reproductive / reproductive performance / …
[25] = systemic / in life observation / clinical signs / convulsions + systemic / in life observation / mortality / mortality + systemic / …
[26] = systemic / pathology microscopic / adrenal gland / dilatation + systemic / pathology microscopic / thyroid gland / hyperplasia + systemic / …
[27] = systemic / in life observation / body weight / body weight gain + systemic / in life observation / food consumption / food consumption + …
[28] = systemic / pathology microscopic / larynx / inflammation
[29] = group: developmental, developmental / developmental malformation / bone / [other] + developmental / developmental malformation / bone / absent + developmental / …
[30] = group: maternal, systemic / in life observation / body weight / body weight gain + systemic / in life observation / food consumption / food consumption + …
[31] = systemic / clinical chemistry / protein / protein + systemic / hematology / neutrophils / neutrophils + systemic / in life observation / …
[32] = systemic / in life observation / food consumption / food consumption + systemic / clinical chemistry / cytochrome p450, nos / cytochrome …

## O=C(Oc1ccc(Br)cc1)N1CCN2CCC1CC2
Rabbit [1]; [16]
  LEL: 30 mg/kg/day
  LOAEL: > 30 mg/kg/day
  NEL: 10 mg/kg/day
  NOAEL: ≥ 30 mg/kg/day
Rabbit [1]; [17]
  LEL: 10 mg/kg/day
  LOAEL: > 30 mg/kg/day
  NEL: 3 mg/kg/day
  NOAEL: ≥ 30 mg/kg/day
Dog [2]; [18]
  LEL: 5 mg/kg/day
  NEL: < 5 mg/kg/day
Dog [2]; [19]
  LOAEL: > 12.5 mg/kg/day
  NOAEL: ≥ 12.5 mg/kg/day
Rabbit [3]; [16]
  LEL: 24 mg/kg/day
  LOAEL: > 24 mg/kg/day
  NEL: 8 mg/kg/day
  NOAEL: ≥ 24 mg/kg/day
Rabbit [3]; [20]
  LEL: 3 mg/kg/day
  NEL: < 3 mg/kg/day
Rabbit [3]; [21]
  LOAEL: > 24 mg/kg/day
  NOAEL: ≥ 24 mg/kg/day
Rat [4]
  LEL: 50 mg/kg/day
  LOAEL: 50 mg/kg/day
  NEL: 20 mg/kg/day
  NOAEL: 20 mg/kg/day
Dog [5]; [22]
  LEL: 1.5 mg/kg/day
  NEL: < 1.5 mg/kg/day
Dog [5]; [23]
  LOAEL: > 15 mg/kg/day
  NOAEL: ≥ 15 mg/kg/day
Rat [6]; [16]
  LEL: 75 mg/kg/day
  LOAEL: > 75 mg/kg/day
  NEL: 25 mg/kg/day
  NOAEL: ≥ 75 mg/kg/day
Rat [6]; [24]
  LOAEL: > 75 mg/kg/day
  NEL: 5 mg/kg/day
  NOAEL: ≥ 75 mg/kg/day
Rat [6]; group: maternal, reproductive / reproductive performance / preimplantation loss / preimplantation loss + systemic / in life observation / body weight / body …
  LEL: 25 mg/kg/day
Rat [7]; [25]
  LOAEL: 75 mg/kg/day
  NOAEL: 25 mg/kg/day
Rat [7]; [26]
  LEL: 5 mg/kg/day
  NEL: < 5 mg/kg/day
Dog [8]; [27]
  LOAEL: > 30 mg/kg/day
  NOAEL: ≥ 30 mg/kg/day
Dog [8]; [28]
  LEL: 3 mg/kg/day
  NEL: < 3 mg/kg/day
Rat [9]; [29]
  LOAEL: 50 mg/kg/day
  NEL: 5 mg/kg/day
  NOAEL: 20 mg/kg/day
Rat [9]; group: developmental, developmental / developmental malformation / bone / incomplete ossification
  LEL: 20 mg/kg/day
Rat [9]; [30]
  LOAEL: 50 mg/kg/day
  NEL: 5 mg/kg/day
  NOAEL: 20 mg/kg/day
Rat [9]; group: maternal, systemic / organ weight / uterus / nos
  LEL: 20 mg/kg/day
Rat [10]
  LEL: 5 mg/kg/day
  LOAEL: 25 mg/kg/day
  NEL: < 5 mg/kg/day
  NOAEL: 5 mg/kg/day

## Cc1oc(-c2ccccc2)nc1CCOc1cccc2c1ccn2CCC(=O)O
Rat [11]
  LEL: 10 mg/kg/day
  LOAEL: > 1000 mg/kg/day
  NEL: < 10 mg/kg/day
  NOAEL: ≥ 1000 mg/kg/day
Primate [12]
  LEL: 100 mg/kg/day
  LOAEL: > 2000 mg/kg/day
  NEL: < 100 mg/kg/day
  NOAEL: ≥ 2000 mg/kg/day
Rat [13]; [31]
  LOAEL: > 2000 mg/kg/day
  NOAEL: ≥ 2000 mg/kg/day
Rat [13]; [32]
  LEL: 100 mg/kg/day
  NEL: < 100 mg/kg/day
Primate [14]
  LEL: 100 mg/kg/day
  LOAEL: > 2000 mg/kg/day
  NEL: < 100 mg/kg/day
  NOAEL: ≥ 2000 mg/kg/day
Primate [15]
  LEL: 100 mg/kg/day
  LOAEL: > 100 mg/kg/day
  NEL: < 100 mg/kg/day
  NOAEL: ≥ 100 mg/kg/day
